Measured values reported in patent publication US10624968B2, “Compounds for treating cancer” (Bicycle Therapeutics Limited, priority 2017, dated 2020).
Starred links: 1 amine or outer side, 2 acyl side, 3 side chain; linkers in the order of their positions; H or OH if unused. Positions of bridges follow the written chain, without caps; N, C: chain ends. Non-standard residues stand in square brackets, D forms with d. Residues, ends and D or L forms follow the SMILES beside them. ξ: configuration not given here. *: point of attachment. X3 = COc1cc2cc(c1Cl)N(C)C(=O)C[C@H](OC(=O)[C@H](C)N(C)C(=O)CCSCc1ccc(N*)cc1)[C@]1(C)O[C@H]1[C@H](C)[C@@H]1C[C@@](O)(NC(=O)O1)[C@H](OC)/C=C/C=C(\C)C2; 1Nal = N[C@@H](Cc1cccc2ccccc12)C(=O)O; TBMB = c1c(C[*:1])cc(C[*:3])cc1C[*:2]; Glutaryl = O=C(CCCC(=O)[*:2])[*:1]; ξ1Nal = NC(Cc1cccc2ccccc12)C(=O)O; Cit = NC(=O)NCCC[C@H](N)C(=O)O; Tle = CC(C)(C)[C@H](N)C(=O)O; ξY = NC(Cc1ccc(O)cc1)C(=O)O; ξTle = CC(C)(C)C(N)C(=O)O; ξF = NC(Cc1ccccc1)C(=O)O; ξE = NC(CCC(=O)O)C(=O)O; ξD = NC(CC(=O)O)C(=O)O; ξN = NC(=O)CC(N)C(=O)O; ξC = NC(CS)C(=O)O; βAla = NCCC(=O)O; ξA = CC(N)C(=O)O; Sar = CNCC(=O)O

Assays:
[1] = Tolerability (body weight) in LU-01-0486 NSCLC PDX model; format: in vivo, mouse; details: dose not given; humane sacrifice of animals at day 24
Experimental: (§1) All the procedures related to animal handling, care and the treatment in the study were performed following the guidance of the Association for Assessment and Accreditation of Laboratory Animal Care (AAALAC). At the time of routine monitoring, the animals were daily checked for any effects of tumor growth and treatments on normal behavior such as mobility, food and water consumption (by looking only), body weight gain/loss (body weights were measured twice weekly), eye/hair matting and any other abnormal effect as stated in the protocol. Death and observed clinical signs were recorded on the basis of the numbers of animals within each subset.

LU-01-0486 PDX = assay: Efficacy in MT1-MMP low-expressing LU-01-0486 NSCLC PDX model; format: in vivo, mouse; details: dose not given
Experimental: The objective of this study was to evaluate the in vivo anti-tumor efficacy of I-1a in the treatment of MT1-MMP low-expressing LU-01-0486 PDX model in female Balb/C nude mice
Each mouse was inoculated subcutaneously at the right flank with LU-01-0486 of tumor fragment (30 mm^3) for tumor development. The treatments was started when the average tumor volume reaches 164 mm^3.
The major endpoint was to see if the tumor growth could be delayed or mice could be cured. Tumor size was measured two times weekly in two dimensions using a caliper, and the volume was expressed in mm^3 using the formula: V=0.5 a×b^2 where a and b are the long and short diameters of the tumor, respectively. […]
TGI was calculated for each group using the formula: TGI (%)=[1−(Ti−T0)/(Vi−V0)]×100; Ti is the average tumor volume of a treatment group on a given day, T0 is the average tumor volume of the treatment group on the day of treatment start, Vi is the average tumor volume of the vehicle control group on the same day with Ti, and V0 is the average tumor volume of the vehicle group on the day of treatment start.
A one-way ANOVA was performed to compare tumor volume among groups, and when a significant F-statistics (a ratio of treatment variance to the error variance) was obtained, comparisons between groups were carried out with Games-Howell test. All data were analyzed using Prism. […]

[2] = Mortality, morbidity and body weight in HT1080 xenograft study (Example 13); format: in vivo, mouse; details: 10 mg/kg biw
Experimental: as §1, with “every day),” for “twice weekly),”
Body weight was monitored regularly as an indirect measure of toxicity.

[3] = system: MT1-positive tumor xenografts; details: mouse, in vivo, iv

CC(=O)O[C@@]12CO[C@@H]1C[C@H](O)[C@@]1(C)C(=O)[C@H](O)C3=C(C)[C@@H](OC(=O)[C@H](O)[C@@H](NC(=O)OC(C)(C)C)c4ccccc4)C[C@@](O)([C@@H](OC(=O)c4ccccc4)[C@H]21)C3(C)C [Docetaxel]
effect on body weight (in words) [1]: severe weight loss
inhibition of tumor growth (in words) (LU-01-0486 PDX): significant inhibition of tumor growth

COc1cc2cc(c1Cl)N(C)C(=O)C[C@H](OC(=O)[C@H](C)N(C)C(=O)CCSCc1ccc(NC(=O)[C@H](CCCNC(N)=O)NC(=O)[C@@H](NC(=O)CCCC(=O)NCCC(=O)N(C)CC(=O)N(C)CC(=O)N(C)CC(=O)N(C)CC(=O)N(C)CC(=O)N(C)CC(=O)N(C)CC(=O)N(C)CC(=O)N(C)CC(=O)N(C)CC(=O)NC(C)C(=O)NC3CSCc4cc5cc(c4)CSCC(NC(=O)C(C)NC(=O)C(Cc4cccc6ccccc46)NC(=O)C(CCC(=O)O)NC(=O)C(CC(N)=O)NC(=O)C(C)NC3=O)C(=O)NC(C)C(=O)NC(CC(=O)O)C(=O)NC(Cc3ccccc3)C(=O)NC(Cc3ccc(O)cc3)C(=O)NC(CC(=O)O)C(=O)NC(C(C)(C)C)C(=O)NC(C(N)=O)CSC5)C(C)C)cc1)[C@]1(C)O[C@H]1[C@H](C)[C@@H]1C[C@@](O)(NC(=O)O1)[C@H](OC)/C=C/C=C(\C)C2 (stereo partly drawn) [Compound I-7] ({X3-Cit-Val-Glutaryl-βAla}-[Sar][Sar][Sar][Sar][Sar][Sar][Sar][Sar][Sar][Sar][ξA][ξC][ξA][ξN][ξE][ξ1Nal][ξA][ξC][ξA][ξD][ξF][ξY][ξD][ξTle][ξC]-NH2; linker 12-18-25 via TBMB)
mice died during the dosing period [2]: 2/3

C[C@H](NC(=O)CN(C)C(=O)CN(C)C(=O)CN(C)C(=O)CN(C)C(=O)CN(C)C(=O)CN(C)C(=O)CN(C)C(=O)CN(C)C(=O)CN(C)C(=O)CN(C)C(=O)CCN)C(=O)N[C@H]1CSCc2cc3cc(c2)CSC[C@H](NC(=O)[C@@H](C)NC(=O)[C@H](Cc2cccc4ccccc24)NC(=O)[C@H](CCC(=O)O)NC(=O)[C@H](CC(N)=O)NC(=O)[C@@H](C)NC1=O)C(=O)N[C@@H](CCC(=O)O)C(=O)N[C@@H](CC(=O)O)C(=O)N[C@@H](Cc1ccccc1)C(=O)N[C@@H](Cc1ccc(O)cc1)C(=O)N[C@@H](CC(=O)O)C(=O)N[C@@H](C(C)(C)C)C(=O)N[C@H](C(N)=O)CSC3 [^177Lu-loaded N241, metal not drawn] (H-[βAla][Sar][Sar][Sar][Sar][Sar][Sar][Sar][Sar][Sar][Sar]AC[dA]NE[1Nal][dA]CEDFYD[Tle]C-NH2; linker 13-19-26 via TBMB; N-terminus and C-terminus assumed)
tumor localization (in words) [3]: rapid tumor localization
